Laboratory results reported in paper PMC5394417, “Investigating the molecular mechanism of positive and negative allosteric modulators in the calcium-sensing receptor dimer” (Scientific Reports, 2017).

Key:
HA-D190A CaSR mutant = biological target: T1, HA-D190A CaSR mutant (Rattus norvegicus, UniProt P48442, D190A); test: IP-One assay, HEK293T transiently transfected; format: cell-based
T1 construct: mGluR5 signal peptide (N); expressed in transfected cells; host or cells: HEK293T
T1 sequence (P48442 20-1079 D190A): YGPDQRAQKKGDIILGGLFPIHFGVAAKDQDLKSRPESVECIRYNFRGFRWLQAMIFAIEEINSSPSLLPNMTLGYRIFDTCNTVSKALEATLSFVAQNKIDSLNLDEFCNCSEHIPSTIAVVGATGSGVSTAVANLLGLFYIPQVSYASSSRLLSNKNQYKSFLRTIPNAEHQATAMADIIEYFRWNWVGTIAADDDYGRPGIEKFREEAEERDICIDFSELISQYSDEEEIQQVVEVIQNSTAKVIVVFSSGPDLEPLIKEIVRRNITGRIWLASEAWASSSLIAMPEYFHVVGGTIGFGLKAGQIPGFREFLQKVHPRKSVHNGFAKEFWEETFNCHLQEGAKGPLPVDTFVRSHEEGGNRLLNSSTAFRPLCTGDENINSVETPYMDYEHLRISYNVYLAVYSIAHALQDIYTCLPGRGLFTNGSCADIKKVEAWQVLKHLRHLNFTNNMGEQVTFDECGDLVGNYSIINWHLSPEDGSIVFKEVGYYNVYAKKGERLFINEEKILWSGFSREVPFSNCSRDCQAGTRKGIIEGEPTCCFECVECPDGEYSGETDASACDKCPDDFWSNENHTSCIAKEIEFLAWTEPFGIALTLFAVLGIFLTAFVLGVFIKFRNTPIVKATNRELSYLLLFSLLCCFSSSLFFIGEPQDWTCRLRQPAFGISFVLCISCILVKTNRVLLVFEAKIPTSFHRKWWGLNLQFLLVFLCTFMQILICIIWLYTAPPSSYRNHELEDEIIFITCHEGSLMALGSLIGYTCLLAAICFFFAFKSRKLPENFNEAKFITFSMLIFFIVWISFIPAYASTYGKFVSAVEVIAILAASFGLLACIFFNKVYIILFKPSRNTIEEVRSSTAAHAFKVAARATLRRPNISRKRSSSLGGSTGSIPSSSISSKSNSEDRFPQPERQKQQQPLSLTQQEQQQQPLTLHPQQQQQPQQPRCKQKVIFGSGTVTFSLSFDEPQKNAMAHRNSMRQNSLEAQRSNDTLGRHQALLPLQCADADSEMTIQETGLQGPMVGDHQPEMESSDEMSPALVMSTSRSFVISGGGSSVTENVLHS

myc-CaSR-F801A = biological target: T2, myc-CaSR-F801A (Rattus norvegicus, UniProt P48442, F801A); test: IP-One assay, co-expression with pEGFPN1 in HEK293T; format: cell-based; conditions: concentrations up to 45 mM Ca^2+
T2 construct: mGluR5 signal peptide (N); expressed in transfected cells; host or cells: HEK293T
Method: Human embryonic kidney (HEK) 293T cells were cultured in DMEM supplemented with 10% dFBS and 1% P/S at 37 °C and 5% CO2. 48 h prior to assay, transient transfection was performed using Lipofectamine 2000 as the transfection reagent. White opaque 96-well culture plates (PerkinElmer, Waltham, MA, USA) were used for the ELISA and the TR-FRET dimerization assay, while clear tissue culture treated 96-well plates (Corning, Corning, NY, USA) were used for the IP-One assay. Both plate types were coated with poly-D-lysine before addition of cells and transfection mix. 0.25 μl/well of Lipofectamine 2000 were diluted in 25 μl/well of Opti-MEM and incubated at room temperature (RT) for 5 min. 0.03 μg/well of DNA was diluted in 25 μl/well of Opti-MEM, and subsequently mixed with the Lipofectamine 2000 dilution and incubated 20 min at RT before addition to the plates. […]
Functional activity was measured using the IP-One assay, which is an IP1 accumulation assay. […] The 384-well plate was incubated for 1 h at RT in dark before being measured on an EnVision plate reader (PerkinElmer, Waltham, MA, USA). Upon excitation at 340 nm, emission at 615 nm and 665 nm was measured, and the FRET ratio (665 nm/615 nm) was converted to IP1 concentrations by interpolating values from an IP1 standard curve generated from a provided IP1 calibrator (Cisbio Bioassays, Codolet, France). […]

T2 sequence (P48442 20-1079 F801A): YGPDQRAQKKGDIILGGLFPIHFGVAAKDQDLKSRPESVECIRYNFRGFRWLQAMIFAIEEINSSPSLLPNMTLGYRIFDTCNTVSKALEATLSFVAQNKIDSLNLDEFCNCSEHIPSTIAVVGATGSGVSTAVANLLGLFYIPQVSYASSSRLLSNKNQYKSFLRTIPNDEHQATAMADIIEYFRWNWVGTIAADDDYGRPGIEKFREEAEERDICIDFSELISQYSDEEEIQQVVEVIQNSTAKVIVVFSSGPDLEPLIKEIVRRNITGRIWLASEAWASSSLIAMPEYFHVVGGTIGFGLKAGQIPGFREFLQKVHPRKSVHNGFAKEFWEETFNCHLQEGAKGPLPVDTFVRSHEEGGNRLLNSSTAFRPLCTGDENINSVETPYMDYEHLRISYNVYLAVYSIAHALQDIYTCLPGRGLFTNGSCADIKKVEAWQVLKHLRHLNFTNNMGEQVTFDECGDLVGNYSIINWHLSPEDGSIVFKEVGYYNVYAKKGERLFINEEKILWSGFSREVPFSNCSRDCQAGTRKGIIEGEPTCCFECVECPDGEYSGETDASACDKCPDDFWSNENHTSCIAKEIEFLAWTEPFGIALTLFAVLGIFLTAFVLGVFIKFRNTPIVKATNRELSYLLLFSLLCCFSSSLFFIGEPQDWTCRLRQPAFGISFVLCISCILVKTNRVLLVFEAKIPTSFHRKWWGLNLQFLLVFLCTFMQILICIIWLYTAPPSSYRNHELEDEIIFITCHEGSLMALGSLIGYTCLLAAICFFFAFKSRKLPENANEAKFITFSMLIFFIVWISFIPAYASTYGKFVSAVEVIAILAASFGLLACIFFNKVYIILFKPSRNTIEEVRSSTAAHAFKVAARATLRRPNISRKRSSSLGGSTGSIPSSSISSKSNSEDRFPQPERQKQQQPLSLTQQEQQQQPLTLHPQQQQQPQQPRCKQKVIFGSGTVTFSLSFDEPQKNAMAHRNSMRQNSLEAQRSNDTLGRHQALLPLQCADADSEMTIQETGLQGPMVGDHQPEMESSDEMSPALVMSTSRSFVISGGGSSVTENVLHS

SMILES: [Ca+2] [Ca^2+]
- EC50 (HA-D190A CaSR mutant; Ca^2+ alone): 17.8 mM
- Hill coefficient ± S.E.M. (HA-D190A CaSR mutant; Ca^2+ alone): 3.77 ± 0.39
- pEC50 ± S.E.M. (HA-D190A CaSR mutant; Ca^2+ alone): 1.75 ± 0.01
- Max ± S.E.M. (HA-D190A CaSR mutant; normalized to maximum response of WT CaSR): 110 ± 11%
- functional response to Ca^2+ (myc-CaSR-F801A): non-functional
